# Assay results taken from ChEMBL document CHEMBL4665642, “Anticancer profile of newly synthesized BRAF inhibitors possess 5-(pyrimidin-4-yl)imidazo[2,1-b]thiazole scaffold” (Bioorg Med Chem, 2019).
# Key:
# Format in all cases: functional
# Details in all cases: read-out: Activity
# MDA-MB-468 = assay: Cytotoxicity against human MDA-MB-468 cells assessed as cell viability at 10 uM incubated for 48 hrs by sulforhodamine B assay relative to control
# BT-549 = assay: Cytotoxicity against human BT-549 cells assessed as cell viability at 10 uM incubated for 48 hrs by sulforhodamine B assay relative to control
# Hs-578T = assay: Cytotoxicity against human HS-578T cells assessed as cell viability at 10 uM incubated for 48 hrs by sulforhodamine B assay relative to control
# MDA-MB-231 = assay: Cytotoxicity against human MDA-MB-231 cells assessed as cell viability at 10 uM incubated for 48 hrs by sulforhodamine B assay relative to control
# DU-145 = assay: Cytotoxicity against human DU-145 cells assessed as cell viability at 10 uM incubated for 48 hrs by sulforhodamine B assay relative to control
# PC-3 = assay: Cytotoxicity against human PC-3 cells assessed as cell viability at 10 uM incubated for 48 hrs by sulforhodamine B assay relative to control
# TK-10 = assay: Cytotoxicity against human TK-10 cells assessed as cell viability at 10 uM incubated for 48 hrs by sulforhodamine B assay relative to control
# SN12C = assay: Cytotoxicity against human SN12C cells assessed as cell viability at 10 uM incubated for 48 hrs by sulforhodamine B assay relative to control
# ACHN = assay: Cytotoxicity against human ACHN cells assessed as cell viability at 10 uM incubated for 48 hrs by sulforhodamine B assay relative to control
# 786-0 = assay: Cytotoxicity against human 786-0 cells assessed as cell viability at 10 uM incubated for 48 hrs by sulforhodamine B assay relative to control
# NCI/ADR-RES = assay: Cytotoxicity against human NCI/ADR-RES cells assessed as cell viability at 10 uM incubated for 48 hrs by sulforhodamine B assay relative to control
# OVCAR-8 = assay: Cytotoxicity against human OVCAR-8 cells assessed as cell viability at 10 uM incubated for 48 hrs by sulforhodamine B assay relative to control
# OVCAR-5 = assay: Cytotoxicity against human OVCAR-5 cells assessed as cell viability at 10 uM incubated for 48 hrs by sulforhodamine B assay relative to control
# OVCAR-4 = assay: Cytotoxicity against human OVCAR-4 cells assessed as cell viability at 10 uM incubated for 48 hrs by sulforhodamine B assay relative to control
# OVCAR-3 = assay: Cytotoxicity against human OVCAR-3 cells assessed as cell viability at 10 uM incubated for 48 hrs by sulforhodamine B assay relative to control
# IGROV-1 = assay: Cytotoxicity against human IGROV-1 cells assessed as cell viability at 10 uM incubated for 48 hrs by sulforhodamine B assay relative to control
# UACC-62 = assay: Cytotoxicity against human UACC-62 cells assessed as cell viability at 10 uM incubated for 48 hrs by sulforhodamine B assay relative to control
# SK-MEL-28 = assay: Cytotoxicity against human SK-MEL-28 cells assessed as cell viability at 10 uM incubated for 48 hrs by sulforhodamine B assay relative to control
# MDA-MB-435 = assay: Cytotoxicity against human MDA-MB-435 cells assessed as cell viability at 10 uM incubated for 48 hrs by sulforhodamine B assay relative to control
# M14 = assay: Cytotoxicity against human M14 cells assessed as cell viability at 10 uM incubated for 48 hrs by sulforhodamine B assay relative to control
# CCRF-CEM = assay: Cytotoxicity against human CCRF-CEM cells assessed as cell viability at 10 uM incubated for 48 hrs by sulforhodamine B assay relative to control
# HL-60(TB) = assay: Cytotoxicity against human HL-60(TB) cells assessed as cell viability at 10 uM incubated for 48 hrs by sulforhodamine B assay relative to control
# K562 = assay: Cytotoxicity against human K562 cells assessed as cell viability at 10 uM incubated for 48 hrs by sulforhodamine B assay relative to control
# MOLT-4 = assay: Cytotoxicity against human MOLT-4 cells assessed as cell viability at 10 uM incubated for 48 hrs by sulforhodamine B assay relative to control
# RPMI-8226 = assay: Cytotoxicity against human RPMI-8226 cells assessed as cell viability at 10 uM incubated for 48 hrs by sulforhodamine B assay relative to control
# SR = assay: Cytotoxicity against human SR cells assessed as cell viability at 10 uM incubated for 48 hrs by sulforhodamine B assay relative to control
# A549 = assay: Cytotoxicity against human A549 cells assessed as cell viability at 10 uM incubated for 48 hrs by sulforhodamine B assay relative to control
# EKVX = assay: Cytotoxicity against human EKVX cells assessed as cell viability at 10 uM incubated for 48 hrs by sulforhodamine B assay relative to control
# HOP-62 = assay: Cytotoxicity against human HOP-62 cells assessed as cell viability at 10 uM incubated for 48 hrs by sulforhodamine B assay relative to control
# HOP-92 = assay: Cytotoxicity against human HOP-92 cells assessed as cell viability at 10 uM incubated for 48 hrs by sulforhodamine B assay relative to control
# NCI-H226 = assay: Cytotoxicity against human NCI-H226 cells assessed as cell viability at 10 uM incubated for 48 hrs by sulforhodamine B assay relative to control
# NCI-H23 = assay: Cytotoxicity against human NCI-H23 cells assessed as cell viability at 10 uM incubated for 48 hrs by sulforhodamine B assay relative to control
# NCI-H460 = assay: Cytotoxicity against human NCI-H460 cells assessed as cell viability at 10 uM incubated for 48 hrs by sulforhodamine B assay relative to control
# NCI-H522 = assay: Cytotoxicity against human NCI-H522 cells assessed as cell viability at 10 uM incubated for 48 hrs by sulforhodamine B assay relative to control
# COLO 205 = assay: Cytotoxicity against human COLO 205 cells assessed as cell viability at 10 uM incubated for 48 hrs by sulforhodamine B assay relative to control
# KM12 = assay: Cytotoxicity against human KM12 cells assessed as cell viability at 10 uM incubated for 48 hrs by sulforhodamine B assay relative to control
# SW-620 = assay: Cytotoxicity against human SW-620 cells assessed as cell viability at 10 uM incubated for 48 hrs by sulforhodamine B assay relative to control
# SF-268 = assay: Cytotoxicity against human SF-268 cells assessed as cell viability at 10 uM incubated for 48 hrs by sulforhodamine B assay relative to control
# SNB-19 = assay: Cytotoxicity against human SNB-19 cells assessed as cell viability at 10 uM incubated for 48 hrs by sulforhodamine B assay relative to control
# SNB-75 = assay: Cytotoxicity against human SNB-75 cells assessed as cell viability at 10 uM incubated for 48 hrs by sulforhodamine B assay relative to control
# U-251 = assay: Cytotoxicity against human U-251 cells assessed as cell viability at 10 uM incubated for 48 hrs by sulforhodamine B assay relative to control
smiles,measurement,setting,value
O=S(=O)(NCCCNc1nccc(-c2c(-c3cccc(F)c3)nc3sccn23)n1)c1ccc(O)cc1,viability at 10 µM,MDA-MB-468,60.4%
same,viability at 10 µM,BT-549,82.5%
same,viability at 10 µM,Hs-578T,85.6%
same,viability at 10 µM,MDA-MB-231,83.9%
same,viability at 10 µM,DU-145,77.4%
same,viability at 10 µM,PC-3,75%
same,viability at 10 µM,TK-10,87.6%
same,viability at 10 µM,SN12C,58.7%
same,viability at 10 µM,ACHN,43.7%
same,viability at 10 µM,786-0,65.5%
same,viability at 10 µM,NCI/ADR-RES,79.1%
same,viability at 10 µM,OVCAR-8,66.2%
same,viability at 10 µM,OVCAR-5,113%
same,viability at 10 µM,OVCAR-4,82.4%
same,viability at 10 µM,OVCAR-3,80.5%
same,viability at 10 µM,IGROV-1,32.6%
same,viability at 10 µM,UACC-62,60.1%
same,viability at 10 µM,SK-MEL-28,95.9%
same,viability at 10 µM,MDA-MB-435,33.4%
same,viability at 10 µM,M14,70.3%
same,viability at 10 µM,CCRF-CEM,67.6%
same,viability at 10 µM,HL-60(TB),107%
same,viability at 10 µM,K562,55.1%
same,viability at 10 µM,MOLT-4,55.5%
same,viability at 10 µM,RPMI-8226,73.6%
same,viability at 10 µM,SR,52.6%
same,viability at 10 µM,A549,47.1%
same,viability at 10 µM,EKVX,78.8%
same,viability at 10 µM,HOP-62,89%
same,viability at 10 µM,HOP-92,98.1%
same,viability at 10 µM,NCI-H226,64.3%
same,viability at 10 µM,NCI-H23,87.6%
same,viability at 10 µM,NCI-H460,52.9%
same,viability at 10 µM,NCI-H522,85%
same,viability at 10 µM,COLO 205,48.4%
same,viability at 10 µM,KM12,27.4%
same,viability at 10 µM,SW-620,82.7%
same,viability at 10 µM,SF-268,62.8%
same,viability at 10 µM,SNB-19,77.7%
same,viability at 10 µM,SNB-75,77.8%
same,viability at 10 µM,U-251,73.2%
O=S(=O)(NCCNc1nccc(-c2c(-c3cccc(F)c3)nc3sccn23)n1)c1cccc2ccccc12,viability at 10 µM,MDA-MB-468,86.1%
same,viability at 10 µM,BT-549,104%
same,viability at 10 µM,Hs-578T,103%
same,viability at 10 µM,MDA-MB-231,95%
same,viability at 10 µM,DU-145,97.8%
same,viability at 10 µM,PC-3,80.2%
same,viability at 10 µM,TK-10,112%
same,viability at 10 µM,SN12C,97.1%
same,viability at 10 µM,ACHN,80.1%
same,viability at 10 µM,786-0,95.4%
same,viability at 10 µM,NCI/ADR-RES,97.3%
same,viability at 10 µM,OVCAR-8,89.4%
same,viability at 10 µM,OVCAR-5,127%
same,viability at 10 µM,OVCAR-4,105%
same,viability at 10 µM,OVCAR-3,103%
same,viability at 10 µM,IGROV-1,61%
same,viability at 10 µM,UACC-62,91.8%
same,viability at 10 µM,SK-MEL-28,123%
same,viability at 10 µM,MDA-MB-435,87.7%
same,viability at 10 µM,M14,107%
same,viability at 10 µM,CCRF-CEM,93.9%
same,viability at 10 µM,HL-60(TB),116%
same,viability at 10 µM,K562,78.3%
same,viability at 10 µM,MOLT-4,73.7%
same,viability at 10 µM,RPMI-8226,83.9%
same,viability at 10 µM,SR,88.1%
same,viability at 10 µM,A549,88%
same,viability at 10 µM,EKVX,93.9%
same,viability at 10 µM,HOP-62,110%
same,viability at 10 µM,HOP-92,91.2%
same,viability at 10 µM,NCI-H226,94.1%
same,viability at 10 µM,NCI-H23,99.9%
same,viability at 10 µM,NCI-H460,97.7%
same,viability at 10 µM,NCI-H522,95.5%
same,viability at 10 µM,COLO 205,85%
same,viability at 10 µM,KM12,85%
same,viability at 10 µM,SW-620,115%
same,viability at 10 µM,SF-268,85.6%
same,viability at 10 µM,SNB-19,96.2%
same,viability at 10 µM,SNB-75,92.3%
same,viability at 10 µM,U-251,97.4%
